The structures appear in SMILES notation.

What all share (format): biochemical
Assay [1] deals with T1, phosphorylated VEGF-R2Δ50 (FLVK-P) (Homo sapiens, UniProt P35968, DEL940-989/E990V).
T1 construct: VEGF-R2Δ50 contains residues 806-939 and 990-1171; made in house; host or cells: baculovirus/insect cells
Nature of the assay: VEGF-R2 coupled spectrophotometric (FLVK-P) assay. The settings on record: read-out: VEGF % inhibition at 20 μM, 20 μM; combinatorial library compounds. The procedure, abridged:
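Baculovirus-expressed human VEGF-R2Δ50 (residues 806-939/990-1171, E990V) was autophosphorylated with 3 mM ATP, 40 mM MgCl2 for 2 h at 4° C. ADP formation was coupled via PK/LDH to NADH oxidation, read at 340 nm, with 5.1 mM poly(E4Y1), 1 mM ATP, 25 mM MgCl2, Hepes pH 7.5. Ki came from activity across compound concentrations.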

Assay [2] concerns the target T2, FL-CHK1 (Homo sapiens, UniProt O14757).
T2 construct: C-terminally His-tagged full-length human CHK1 (FL-CHK1); 6xHis (C); made in house; host or cells: baculovirus/insect cells
T2 sequence (O14757 1-476): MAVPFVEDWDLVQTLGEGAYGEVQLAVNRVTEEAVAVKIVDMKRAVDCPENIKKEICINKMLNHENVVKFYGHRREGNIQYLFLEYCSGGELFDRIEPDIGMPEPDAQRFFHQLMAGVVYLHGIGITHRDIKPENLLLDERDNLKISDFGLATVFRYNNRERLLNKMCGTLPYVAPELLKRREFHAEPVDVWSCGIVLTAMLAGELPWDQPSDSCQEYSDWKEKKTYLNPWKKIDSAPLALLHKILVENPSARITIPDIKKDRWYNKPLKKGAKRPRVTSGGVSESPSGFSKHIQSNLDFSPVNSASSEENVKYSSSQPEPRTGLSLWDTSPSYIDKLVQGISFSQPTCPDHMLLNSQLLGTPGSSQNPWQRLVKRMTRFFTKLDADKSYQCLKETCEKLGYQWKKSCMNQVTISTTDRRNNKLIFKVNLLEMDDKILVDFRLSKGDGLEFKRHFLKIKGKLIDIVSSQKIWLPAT
Description: CHK1 assay. Particulars: 20 μM; combinatorial library compounds. The procedure, abridged: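 Full-length human CHK1 with C-terminal 6×His tag, made in baculovirus/insect cells, 10 nM, phosphorylating 0.125 mM Syntide-2 with 0.15 mM ATP in 50 mM Tris pH 7.5, 25 mM MgCl2, 400 mM NaCl. PK/LDH-coupled NADH oxidation read at 340 nm. Ki from initial rates over varied compound concentrations.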

For assay [3], the target named is CDK2/Cyclin A complex (Homo sapiens, UniProt P24941). Nature of the assay: CDK2/Cyclin A assay. Particulars: 1.0 μM; combinatorial library compounds. The procedure, abridged: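 Radiometric assay: 150 nM CDK2/cyclin A (insect-cell CDK2, truncated cyclin A) phosphorylates His-tagged Rb fragment (residues 386-928) with 25 μM ATP plus [32P]ATP, pH 7.4 HEPES, 2% DMSO, 30 °C for 20 min. Filter-captured product counted by phosphorimager; apparent Ki from competitive or tight-binding inhibition fits.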

Assay [4] has as its target T3, CDK4/Cyclin D3 complex (Homo sapiens, UniProt P11802).
T3 construct: made in house; host or cells: insect cells co-infected with baculovirus vectors
Description: CDK4/Cyclin D assay. The settings on record: 1.0 μM; combinatorial library compounds. The method, then:
CDK4/Cyclin D Construct for Assay: A complex of human CDK4 and cyclin D3, or a complex of cyclin DI and a fusion protein of human CDK4 and glutathione-S-transferase (GST-CDK4), was purified using traditional biochemical chromatographic techniques from insect cells that had been co-infected with the corresponding baculovirus expression vectors.
CDK2/Cyclin A and CDK4/Cyclin D Assays
Cyclin-dependent kinase activity was measured by quantifying the enzyme-catalyzed, time-dependent incorporation of radioactive phosphate from [^32P]ATP into a recombinant fragment of the retinoblastoma protein. Unless noted otherwise, assays were performed in 96-well plates in a total volume of 50 μL, in the presence of 10 mM HEPES (N-[2-hydroxyethyl]piperazine-N′-[2-ethanesulfonic acid]) (pH 7.4), 10 mM MgCl2, 25 μM adenosine triphosphate (ATP), 1 mg/mL ovalbumin, 5 μg/mL leupeptin, 1 mM dithiothreitol, 10 mM β-glycerophosphate, 0.1 mM sodium vanadate, 1 mM sodium fluoride, 2.5 mM ethylene glycol-bis(β-aminoethyl ether)-N,N,N′N′-tetraacetic acid (EGTA), 2% (v/v) dimethylsulfoxide, and 0.03-0.2 μCi [^32P]ATP. The substrate (0.3-0.5 μg) was purified recombinant retinoblastoma protein fragment (Rb) (residues 386-928 of the native retinoblastoma protein; 62.3 kDa, containing the majority of the phosphorylation sites found in the native 106-kDa protein, as well as a tag of six histidine residues for ease of purification). Reactions were initiated with CDK2 (150 nM CDK2/Cyclin A complex) or CDK4 (50 nM CDK4/Cyclin D3 complex), incubated at 30° C., and terminated after 20 minutes by the addition of ethylenediaminetetraacetic acid EDTA) to 250 mM. The phosphorylated substrate was then captured on a nitrocellulose membrane using a 96-well filtration manifold, and unincorporated radioactivity was removed by repeated washing with 0.85% phosphoric acid. Radioactivity was quantified by exposing the dried nitrocellulose membranes to a phosphorimager. Apparent Ki values were measured by assaying enzyme activity in the presence of different compound concentrations and subtracting the background radioactivity measured in the absence of enzyme. The kinetic parameters (kcat, Km for ATP) were measured for each enzyme under the usual assay conditions by determining the dependence of initial rates on ATP concentration. The data were fit to an equation for competitive inhibition using Kaleidagraph (Synergy Software), or were fit to an equation for competitive tight-binding inhibition using the software KineTic (BioKin, Ltd.). Measured Ki values for known inhibitors against CDK4 and CDK2 agreed with published IC50 values. The specific activity of CDK4 was the same whether complexed to full-length cyclin D3 or the truncated Cyclin D3 construct; both complexes also yielded very similar Ki values for selected inhibitors.

T3 sequence (P11802 whole entry): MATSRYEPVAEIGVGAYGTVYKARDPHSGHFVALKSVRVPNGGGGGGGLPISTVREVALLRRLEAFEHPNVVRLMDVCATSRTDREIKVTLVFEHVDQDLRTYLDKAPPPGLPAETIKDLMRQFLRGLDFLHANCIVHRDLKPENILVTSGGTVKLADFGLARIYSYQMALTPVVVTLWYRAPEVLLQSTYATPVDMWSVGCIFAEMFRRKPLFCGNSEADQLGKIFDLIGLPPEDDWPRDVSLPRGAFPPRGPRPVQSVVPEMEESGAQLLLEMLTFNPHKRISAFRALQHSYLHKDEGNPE
T3 sequence (P30281 whole entry partner): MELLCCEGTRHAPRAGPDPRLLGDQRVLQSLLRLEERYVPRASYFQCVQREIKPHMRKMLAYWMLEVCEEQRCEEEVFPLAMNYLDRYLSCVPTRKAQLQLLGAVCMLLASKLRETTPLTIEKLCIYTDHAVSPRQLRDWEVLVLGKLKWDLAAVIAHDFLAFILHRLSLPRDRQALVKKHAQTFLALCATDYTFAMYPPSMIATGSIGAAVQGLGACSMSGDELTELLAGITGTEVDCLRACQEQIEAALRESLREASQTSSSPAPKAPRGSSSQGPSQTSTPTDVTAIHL
T1 sequence (P35968 with tags, fused parts or gaps DEL940-989/E990V limits assumed): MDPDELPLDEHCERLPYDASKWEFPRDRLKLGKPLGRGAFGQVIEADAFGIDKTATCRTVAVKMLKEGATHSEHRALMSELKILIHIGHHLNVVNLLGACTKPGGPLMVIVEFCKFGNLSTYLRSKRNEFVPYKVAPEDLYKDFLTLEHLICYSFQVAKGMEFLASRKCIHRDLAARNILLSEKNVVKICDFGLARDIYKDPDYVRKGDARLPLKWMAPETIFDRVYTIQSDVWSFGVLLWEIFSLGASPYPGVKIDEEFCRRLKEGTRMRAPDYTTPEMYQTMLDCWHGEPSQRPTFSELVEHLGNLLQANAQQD

On to `CC(=O)Oc1ccccc1-c1csc(-c2sc(Nc3ccc(S(N)(=O)=O)cc3)nc2N)n1`, for which the inhibition at 20 µM in assay [1] was 33%; in assay [2], -7.3%. In addition, the results for the inhibition at 1 µM in assay [3] and in assay [4] were 25.4% and -4.8%, respectively.

As to `Nc1nc(Nc2ccc(S(N)(=O)=O)cc2)sc1-c1nc(-c2ccc(Cl)c(Cl)c2)cs1`, the inhibition at 20 µM in assay [1] was determined as 9%; in assay [2] it was 11.7%. Further, the inhibition at 1 µM in assay [3] was 1.3%; in assay [4], -3.1%.

Take `CN(C)c1ccc(Nc2nc(N)c(-c3nc(-c4c(Cl)cc(C(F)(F)F)cc4Cl)cs3)s2)cc1`: the inhibition at 20 µM was 26% in assay [1] and 37.5% in assay [2]. The inhibition at 1 µM turned out to be 29.1% in assay [3] and 82.6% in assay [4].

For `Nc1nc(Nc2ccc(S(N)(=O)=O)cc2)sc1-c1nc(-c2ccc(-c3ccc(Cl)cc3Cl)o2)cs1`, the results for the inhibition at 20 µM in assay [1] and in assay [2] were -2% and 3.3%, respectively. In addition, the inhibition at 1 µM was determined as 21.4% in assay [3] and 25% in assay [4].

Consider `CC(C)c1ccc(Nc2nc(N)c(-c3nc(-c4cccc([N+](=O)[O-])c4)cs3)s2)cc1`, for which the results for the inhibition at 20 µM in assay [1] and in assay [2] were -2% and 7.2%, respectively. For the same molecule, the inhibition at 1 µM in assay [3] is 24.7%; in assay [4], 35.3%.

In the case of `CN(C)c1ccc(Nc2nc(N)c(-c3nc(-c4cccc([N+](=O)[O-])c4)cs3)s2)cc1`, the results for the inhibition at 20 µM in assay [1] and in assay [2] were 6% and 13.8%, respectively. Further, the figures for the inhibition at 1 µM in assay [3] and in assay [4] were 17.1% and 27%, respectively.

With `CC(C)c1ccc(Nc2nc(N)c(-c3nc(-c4ccc5c(c4)CCC(=O)N5)cs3)s2)cc1`, the inhibition at 20 µM in assay [1] was found to be 21%; in assay [2] it was 20.9%. Moreover, the inhibition at 1 µM in assay [3] is 29.1%; in assay [4] it was 59.5%.

On to `COc1ccccc1-c1csc(-c2sc(Nc3ccc(C(C)C)cc3)nc2N)n1`, for which the inhibition at 20 µM in assay [1] is -13%; in assay [2], 15.6%. Besides, the values for the inhibition at 1 µM in assay [3] and in assay [4] were 6.3% and 53.3%, respectively.

For the molecule `CN(C)c1ccc(Nc2nc(N)c(-c3nc(-c4csc5ccccc45)cs3)s2)cc1`, the results for the inhibition at 20 µM in assay [1] and in assay [2] were 22% and 12.6%, respectively. The inhibition at 1 µM in assay [3] is 23.5%; in assay [4], 57.7%.

For `CC(C)c1ccc(Nc2nc(N)c(-c3nc(-c4ccccc4OC(=O)c4ccccc4)cs3)s2)cc1`, the inhibition at 20 µM is 7% in assay [1] and -4.2% in assay [2]. The values for the inhibition at 1 µM in assay [3] and in assay [4] were 4.8% and 56.1%, respectively.

Consider `CC(C)c1ccc(Nc2nc(N)c(-c3nc(-c4ccc5c(c4)C(C)(C)CCC5(C)C)cs3)s2)cc1`, for which the figures for the inhibition at 20 µM in assay [1] and in assay [2] were 19% and 11.6%, respectively. Besides, the inhibition at 1 µM stood at 5.2% in assay [3] and 74.4% in assay [4].

For the molecule `CC(C)c1ccc(Nc2nc(N)c(-c3nc(-c4ccc(C(F)(F)F)cc4)cs3)s2)cc1`, the inhibition at 20 µM was -4% in assay [1] and 3.7% in assay [2]. Moreover, the inhibition at 1 µM in assay [3] turned out to be 8.7%; in assay [4], 48.3%.

In the case of `Nc1nc(Nc2ccc(S(N)(=O)=O)cc2)sc1-c1nc(-c2ccccc2OC(=O)c2ccccc2)cs1`, the inhibition at 20 µM in assay [1] was 9%; in assay [2], -1.6%. Further, the inhibition at 1 µM in assay [3] came out at 29%; in assay [4], 2.3%.

Consider `Nc1nc(Nc2ccc(S(N)(=O)=O)cc2)sc1-c1nc(-c2cccc(Br)c2)cs1`, for which the inhibition at 20 µM amounted to 15% in assay [1] and 16.4% in assay [2]. Further, the inhibition at 1 µM in assay [3] was 17.6%; in assay [4], -0.3%.

Regarding `CN(C)c1ccc(Nc2nc(N)c(-c3nc(-c4ccccc4OC(=O)c4ccccc4)cs3)s2)cc1`, the inhibition at 20 µM turned out to be 23% in assay [1] and 9.8% in assay [2]. In addition, the inhibition at 1 µM in assay [3] is 27.1%; in assay [4] it was 48.5%.

Take `Nc1nc(Nc2ccc(S(N)(=O)=O)cc2)sc1-c1nc(-c2ccc(F)cc2F)cs1` [drawing 445]: the inhibition at 20 µM in assay [1] is 40%; in assay [2], 21.6%. Further, the inhibition at 1 µM in assay [3] turned out to be 74.1%; in assay [4] it was 58.2%.

`Nc1nc(Nc2ccc(S(N)(=O)=O)cc2)sc1-c1nc(-c2ccc(Cl)c([N+](=O)[O-])c2)cs1`: the inhibition at 20 µM in assay [1] is -2%; in assay [2] it was 13.1%. Besides, the inhibition at 1 µM is 17.6% in assay [3] and -28.2% in assay [4].

For `CC(C)c1ccc(Nc2nc(N)c(-c3nc(-c4cc(-c5ccccc5)no4)cs3)s2)cc1`, the values for the inhibition at 20 µM in assay [1] and in assay [2] were 13% and -4.7%, respectively. Moreover, the inhibition at 1 µM in assay [3] was 2.4%; in assay [4], 50.4%.

For `Nc1nc(Nc2ccc(S(N)(=O)=O)cc2)sc1-c1nc(-c2ccc3ccccc3c2)cs1`, the inhibition at 20 µM in assay [1] was 12%; in assay [2], 7.8%. Moreover, the values for the inhibition at 1 µM in assay [3] and in assay [4] were 25.5% and -8.9%, respectively.

In the case of `CCc1cc2c(cc1-c1csc(-c3sc(Nc4ccc(C(C)C)cc4)nc3N)n1)C(C)(C)CCC2(C)C`, the inhibition at 20 µM in assay [1] was found to be 13%; in assay [2], 6.5%. Also, the inhibition at 1 µM in assay [3] worked out at 6.2%; in assay [4] it was 61.4%.

Turning to `COc1ccc2nc(-c3ccccc3)c(-c3csc(-c4sc(Nc5ccc(N(C)C)cc5)nc4N)n3)cc2c1`, the inhibition at 20 µM in assay [1] was found to be 14%; in assay [2] it was 26%. The inhibition at 1 µM in assay [3] was 24.6%; in assay [4] it was 81.8%.

Regarding `N#Cc1ccc(-c2nc(-c3sc(Nc4ccc(S(N)(=O)=O)cc4)nc3N)cs2)cc1`, the inhibition at 20 µM is 13% in assay [1] and 3.7% in assay [2]. The results for the inhibition at 1 µM in assay [3] and in assay [4] were 13.3% and 16.3%, respectively.

With `Cc1c(F)cc(-c2csc(-c3sc(Nc4ccc(S(N)(=O)=O)cc4)nc3N)n2)cc1Cl` [drawing 440], the inhibition at 20 µM was 5% in assay [1] and 21.1% in assay [2]. For the same molecule, the inhibition at 1 µM in assay [3] turned out to be 68%; in assay [4] it was 75%.

The record behind these values is patent US6620828B2, “Thiazole compounds and pharmaceutical compositions for inhibiting protein kinases and methods for their use” (Agouron Pharmaceuticals, Inc., priority 1999, dated 2003).
